Like-named read-outs stand apart in the source and are kept apart here.
Assays:
[1] = Inhibition of ovalbumin (Ova) oxidative degradation by ClO radical; conditions: for ClO radical inhibitory concentration: concentration that completely inhibits oxidative degradation of protein by 10 mM ClO•; for Inhibitory action toward proteolysis by ClO radical: Ova; for Inhibition effect on degradation of protein due to ClO radical: 30 min, pH 7.2; for Rank of ClO•-scavenging strength (in words): complete inhibition of protein degradation by 10 mM ClO•, comparison of Table 3
Experimental: (§1) ClO•, OH•, and NO3• were prepared as three typical active oxygen species produced in the body. Clo• was prepared using a method wherein sodium hypochlorite was diluted to a pH 6.5 with distilled water, OH• by a partially modified Fenton method (B. Halliwell, et al., Analytical Biochmistry, No. 165, p. 215-219, 1987), and NO3• by a modified quenching flow reactor method (R. Radi, et al., Journal of Biological Chemistry, Vol. 266, p. 4244-4250, 1991). Next, Ova was dissolved in pH 7.2 buffered physiological saline to a concentration of 2.5 mg/mL, each concentration of antioxidant was added at a volume ratio of 10:1 with respect to the protein solution, the solution was let stand for 30 min at room temperature, each concentration of active oxygen was added in the same manner at a volume ratio of 10:1 with respect to protein solution, and ClO• oxidation was performed for 30 min at 37° C., OH• oxidation for 60 min at 37° C., and NO3 oxidation for 120 min at 37° C. After the reaction, sodium dodecylsulfate-polyacrylamide gel electrophoresis (SDS-PAGE) was performed on each sample, the gel was stained with Coomassie blue R250, and the Ova degradation inhibition rate was calculated from the densitometer reading. An accurate degradation inhibition rate was calculated using the following formula from the proteolytic inhibition activity obtained by performing GPC-HPLC using a TSKG-3,000SW column directly on the reacted samples.
(§2) Using the same test methods as described in (1) above, a comparison of inhibitory activity by various natural extracts on the Ova degradation by active oxygen was performed. The concentrations of the natural extracts tested were 5 mg/mL as solids.
The strength of antioxidant activity between peptides with antioxidant activity and sulfur-containing amino acids was compared with respect to ClO•, and between various antioxidants with antioxidant activity with respect to OH•.

[2] = Inhibition of ovalbumin (Ova) oxidative degradation by OH radical; conditions: for Inhibitory action toward proteolysis by OH radical: Ova; for OH radical inhibitory concentration: concentration that completely inhibits the proteolytic action of 10 mM OH•; for Inhibition effect on degradation of protein due to OH radical: 60 min, pH 7.2
Experimental: as §1, §2

[3] = Inhibition of ovalbumin (Ova) oxidative degradation by ONOO radical; conditions: for Inhibitory action toward proteolysis by ONOO radical: Ova; for Inhibition effect on degradation of protein due to ONOO radical: 120 min, pH 7.2; for Concentration that completely inhibited the oxidative effect of ONOO•: 5 mM ONOO•
Experimental: as §1, §2

[4] = system: cholesterol in the blood; conditions: known from the literature (Herrera-Arellano 2004; Kim 2003); cited from earlier work
[5] = system: human red blood cells; assay: Microchannel (MC) transit capability of human red blood cells damaged by active oxygen; assay type: cell-based
Experimental: A microchannel (hereinafter, MC), which is a capillary model, is a device that measures hemorheology, i.e., the capability of blood to circulate through capillaries. Factors affecting hemorheology include meals, oxidative stress, etc. In the present invention the effects of the three active oxygen species produced in the body on the MC transit capability of human red blood cells were tested, and the effectiveness of various antioxidants in preventing the harmful effects of active oxygen were compared.
Next, the effectiveness of various antioxidants in preventing the MC transit damage due to various active oxygen species was measured using red blood cells. […] (2.5 mM) as the ONOO•-scavenger were used. These three types were mixed together and used as the antioxidant mixture.
A microchannel (MC), which is a capillary model, is a device that measures hemorheology, i.e., the capability of blood to circulate through capillaries. Factors effecting hemorheology include meals, oxidative stress, etc. In the present Example, the effects of the three active oxygen species produced in the body on the MC transit capability of human red blood cells were tested.
For the test method, blood from healthy human volunteers was subjected a Ficoll-Pague centrifuge (made by Amersham-Pharmacia Biotech) to separate a red blood cell fraction, and the MC transit time of the red blood (final concentration of hematocrit is 10%) treated by various active oxygen species was measured by an MC FAN KH-3A (channel width 7 μm, MC Laboratory, Inc.).

[6] = system: glycated hemoglobin (HbAlc) in the blood; assay: Lowering of glycated hemoglobin in the blood of diabetic model GK rats; assay type: in vivo; conditions: 100 mg/kg orally for 28 days, FIG. 5
Experimental: Using the diabetes model animal GK rats (Y. Ihara, et al. FEBS Letters, Vol. 473, p. 24-26, 2000), the effectiveness of single doses of various antioxidants and combined doses of antioxidants in lowering the level of glycated hemoglobin (HbAlc) in the blood was compared.
As the ClO•-scavenger 200 mg/kg of anserine-carnosine mixture derived from chicken extract, as the OH•-scavenger wheat grass extract (total content of caffeic acid analogues 10 mg/kg), as the ONOO•-scavenger 100 mg/kg of V.C., and a composition containing all three antioxidants were administered orally to the GK rats for 28 days, and the blood HbAlc levels were measured at the end of dosing.

[7] = antioxidant 20 μM, 10 mM OH radical
[8] = antioxidant 20 μM, 10 mM ClO radical
[9] = antioxidant 50 μM, 10 mM OH radical
[10] = antioxidant 50 μM, 10 mM ClO radical
[11] = antioxidant 5 mM, 10 mM OH radical
[12] = antioxidant 5 mM, 10 mM ClO radical

Cn1cncc1C[C@H](NC(=O)CCN)C(=O)O [Anserine, anserine]
ClO radical inhibitory concentration [1]: 5.0 mM

CC1=C(/C=C/C(C)=C/C=C/C(C)=C/C=C/C=C(C)/C=C/C=C(C)/C=C/C2=C(C)C(=O)[C@@H](O)CC2(C)C)C(C)(C)C[C@H](O)C1=O [Astaxanthin, astaxanthin]
Inhibitory action toward proteolysis by OH radical [2, 7]: 100% | OH radical inhibitory concentration [2]: 0.5 µM | Inhibitory action toward proteolysis by ClO radical [1, 8]: 24% | Inhibitory action toward proteolysis by ONOO radical ([3]; antioxidant 20 μM): 28%

CC1=C(/C=C/C(C)=C/C=C/C(C)=C/C=C/C=C(C)/C=C/C=C(C)/C=C/C2=C(C)CCCC2(C)C)C(C)(C)CCC1 [B-carotene, β-carotene]
Inhibitory action toward proteolysis by OH radical [2, 7]: 100% | OH radical inhibitory concentration [2]: 0.5 µM | Inhibitory action toward proteolysis by ClO radical [1, 8]: 38% | Concentration showing degradation inhibitory activity against ONOO• [3]: 10 µM | Inhibitory action toward proteolysis by ONOO radical ([3]; antioxidant 20 μM): 74%

O=C(O)/C=C/c1ccc(O)c(O)c1 [Caffeic acid, caffeic acid]
OH radical inhibitory concentration [2]: 4.0 µM | OH radical inhibitory concentration ([2]; listed as caffeic acid): 2.5 µM

NCCC(=O)N[C@@H](Cc1cnc[nH]1)C(=O)O [Carnosine, carnosine]
ClO radical inhibitory concentration [1]: 5.0 mM

Oc1cc(O)c2c(c1)OC(c1ccc(O)c(O)c1)C(O)C2 (centres unmarked) [Catechins, catechins]
Inhibitory action toward proteolysis by OH radical [2, 9]: 100% | OH radical inhibitory concentration [2]: 2.5 µM | Inhibitory action toward proteolysis by ClO radical [1, 10]: 0% | Concentration showing degradation inhibitory activity against ONOO• [3]: 500 µM | Inhibitory action toward proteolysis by ONOO radical ([3]; antioxidant 50 μM): 58%

O=C(/C=C/c1ccc(O)c(O)c1)O[C@@H]1C[C@](O)(C(=O)O)C[C@@H](O)[C@H]1O [Chlorogenic acid, chlorogenic acid]
Effect of lowering the level of cholesterol in the blood (in words) [4]: have an effect of lowering the level of cholesterol in the blood

COC1=C(OC)C(=O)C(C/C=C(\C)CC/C=C(\C)CC/C=C(\C)CC/C=C(\C)CC/C=C(\C)CC/C=C(\C)CC/C=C(\C)CC/C=C(\C)CC/C=C(\C)CCC=C(C)C)=C(C)C1=O [CoQ10]
Inhibition effect on degradation of protein due to OH radical ([2]; 50 μM): 100 | Inhibition of red blood cell MC transit damage due to OH• ([5]; hematocrit 10%, 10 mM OH radical, FIG. 10): inhibited the damage | Inhibition effect on degradation of protein due to ClO radical ([1]; 50 μM): 0 | Inhibition effect on degradation of protein due to ONOO radical ([3]; 50 μM): 0

N[C@@H](CS(=O)(=O)O)C(=O)O [Cysteic acid, cysteic acid]
ClO radical inhibitory concentration [1]: 7.5 mM

N[C@@H](CS)C(=O)O [Cysteine, L-cysteine]
Inhibition effect on degradation of protein due to OH radical ([2]; 5 mM): 15 | Inhibition effect on degradation of protein due to ClO radical ([1]; 5 mM): 100 | Rank of ClO•-scavenging strength (in words) [1]: most potent | ClO radical inhibitory concentration [1]: 2.5 mM | Inhibition effect on degradation of protein due to ONOO radical ([3]; 5 mM): 22

O=C(O[C@@H]1Cc2c(O)cc(O)cc2O[C@@H]1c1cc(O)c(O)c(O)c1)c1cc(O)c(O)c(O)c1 [Epigallocatechin gallate, epigallocatechin gallate]
Concentration at which oxidative degradation of Ova by OH• was completely inhibited ([2]; FIG. 1, 10 mM OH radical, tested concentration): 5 µM | OH radical inhibitory concentration [2]: 2.5 µM | Inhibition of red blood cell MC transit damage due to OH• ([5]; antioxidant 50 μM, FIG. 4): completely inhibited | Inhibition of Ova oxidative degradation by ClO• (in words) ([1]; FIG. 1, 10 mM ClO radical, β-carotene 20 μM, EGCG 500 μM): faint inhibitory activity | Concentration showing degradation inhibitory activity against ONOO• ([3]; FIG. 1, said to exceed physiologically relevant concentrations): 500 µM

COc1cc(/C=C/C(=O)O)ccc1O [Ferulic acid, ferulic acid]
Inhibitory action toward proteolysis by OH radical [2, 9]: 100% | OH radical inhibitory concentration [2]: 2.5 µM | Effect of lowering the level of cholesterol in the blood (in words) [4]: have an effect of lowering the level of cholesterol in the blood | Inhibitory action toward proteolysis by ClO radical [1, 10]: 7% | Inhibitory action toward proteolysis by ONOO radical ([3]; antioxidant 50 μM): 34%

CSCC[C@H](N)C(=O)O [Methionine, methionine]
Inhibition effect on degradation of protein due to OH radical ([2]; 5 mM): 62 | Inhibition effect on degradation of protein due to ClO radical ([1]; 5 mM): 100 | ClO radical inhibitory concentration [1]: 5.0 mM | Inhibition effect on degradation of protein due to ONOO radical ([3]; 5 mM): 45

CC(=O)N[C@@H](CS)C(=O)O [N-acetyl-L-cysteine]
Inhibition effect on degradation of protein due to OH radical ([2]; 5 mM): 20 | Inhibition effect on degradation of protein due to ClO radical ([1]; 5 mM): 100 | Rank of ClO•-scavenging strength (in words) [1]: most potent | ClO radical inhibitory concentration [1]: 2.5 mM | Inhibition effect on degradation of protein due to ONOO radical ([3]; 5 mM): 20

O=c1c(O)c(-c2ccc(O)c(O)c2)oc2cc(O)cc(O)c12 [Quercetin, quercetin]
Inhibitory action toward proteolysis by OH radical [2, 9]: 100% | OH radical inhibitory concentration [2]: 2.5 µM | Inhibitory action toward proteolysis by ClO radical [1, 10]: 5% | Inhibitory action toward proteolysis by ONOO radical ([3]; antioxidant 50 μM): 16%

N[C@@H](CCC(=O)N[C@@H](CS)C(=O)NCC(=O)O)C(=O)O [Reduced glutathione, reduced glutathione]
Rank of ClO•-scavenging strength (in words) [1]: most potent | ClO radical inhibitory concentration [1]: 2.5 mM

O=C1O[C@H]([C@@H](O)CO)C(O)=C1O [Vitamin C, L-ascorbic acid]
Decrease of blood HbAlc level [6]: 0.3% | Inhibitory action toward proteolysis by OH radical [2, 11]: 0% | Inhibition of red blood cell MC transit damage due to ONOO• ([5]; hematocrit 10%, 5 mM ONOO radical, FIG. 10): inhibited the damage | Inhibitory action toward proteolysis by ClO radical [1, 12]: 67% | Concentration that completely inhibited the oxidative effect of ONOO• [3]: 1 mM | Inhibitory action toward proteolysis by ONOO radical ([3]; antioxidant 5 mM): 100%

Cc1c(C)c2c(c(C)c1O)CC[C@@](C)(CCC[C@H](C)CCC[C@H](C)CCCC(C)C)O2 [Vitamin E, α-tocopherol]
Inhibitory action toward proteolysis by OH radical [2, 11]: 98% | Rank of OH•-scavenging strength (in words) ([2]; complete inhibition of proteolysis by 10 mM OH•, comparison of Table 4): weakest antioxidant activity | OH radical inhibitory concentration [2]: 2500 µM | Antioxidant activity against OH• (inhibition of proteolysis) relative to astaxanthin ([2]; fraction of the activity of the carotenoid astaxanthin): approximately 1/5000 | Inhibitory action toward proteolysis by ClO radical [1, 12]: 0% | Inhibitory action toward proteolysis by ONOO radical ([3]; antioxidant 5 mM): 22%

O=C1O[C@H]([C@@H](O)CO)C([O-])=C1O.[Na+] [sodium V.C.]
Concentration that completely inhibited the oxidative effect of ONOO• [3]: 1 mM

alliin
ClO radical inhibitory concentration [1]: 7.5 mM

— patent US7727961B2, “Antioxidant constituents” (Tokai Bussan Co., Ltd., priority 2004, dated 2010)
